The target of data set [1] is T1, FMDV 3Cpro (Foot-and-mouth disease virus A, UniProt A0A097I315). Put plainly: biochemical. As to conditions: FRET assay (IC50). Also on record: species or system FMDV A/IND287/96 strain (serotype A).
Data set [2] concerns the target T1, FMDV 3Cpro. Kind of data set: cell-based. The following applies: Cell-based assay (EC50). Also on record: species or system FMDV A/IND287/96 strain.
Data set [3] has as its system FMDV. The following applies: read-out: in vitro potency against FMDV (EC50); cited from earlier work.
Data set [4] is described as follows: in vitro. The following applies: human.
Data set [5] has as its system SARS-CoV-2. The following applies: read-out: EC50 against SARS-CoV-2; cited from earlier work.
In data set [6] the test system is FMDV. The following applies: pig, in vivo; cited from earlier work.
In data set [7] the test system is FMDV. As to conditions: mouse, in vivo; cited from earlier work.
In data set [8] the test system is FMDV. The following applies: cited from earlier work.
Data set [9] relates to FMDV. The following applies: cited from earlier work. This is another data set of the same source.

The term IC50 denotes the concentration that inhibits the measured activity by half. Read a high IC50 as weaker potency in that assay. One may read the EC50 as the midpoint of the concentration-response curve. Consider `CCOC(=O)/C=C/[C@H](C[C@@H]1CCNC1=O)NC(=O)[C@@H](CC(=O)[C@@H](NC(=O)c1cc(C)on1)C(C)C)Cc1ccc(F)cc1` [AG7088, Rupintrivir, reference compound], for which, in data set [1], the IC50 was determined as 4.3 ± 0.2 µM. In addition, the EC50 is 10.3 ± 0.2 µM in data set [2] and 10 to 20 µM in data set [3]. In [4], this molecule came in with a CC50 above 50 µM.

In the case of `CC(C)C[C@H](NC(=O)OCC(C)(C)Sc1ccccc1)C(=O)N[C@H](C=O)C[C@@H]1CCNC1=O` [Compound D1c], the IC50 in data set [1] was found to be 1.2 ± 0.71 µM. Further, the EC50 in data set [2] is 1.85 ± 0.35 µM; in data set [5] it was 0.012 µM. This molecule came in with a CC50 in data set [4] above 50 µM.

As for `CC(C)C[C@H](NC(=O)OCC(C)(C)Sc1ccccc1)C(=O)N[C@@H](C[C@@H]1CCNC1=O)C(O)S(=O)(=O)O` (some centres unmarked) [Compound D1d], in [1], the IC50 was 1.01 ± 0.42 µM. Also, the concentration giving a half-maximal response (EC50) is 1.5 ± 0.43 µM in [2] and 0.01 µM in [5]. This molecule also gave a CC50 in [4] above 50 µM.

Consider `NC(=O)c1ncc[nH]c1=O` [Compound T-1105], for which, in data set [6], the “viremia in FMDV-challenged pigs” value was “reduced or prevented viremia”.

Consider `CCCCOc1nc(N)c2c(n1)N(Cc1cccc(CN3CCCC3)c1)CC(=O)N2` [GS-9620], for which, in data set [7], the “survival rate in FMDV-vaccinated and un-vaccinated mice” value is reported as “enhanced survival rate”.

Consider `Oc1ccccc1-c1nc2c3ccccc3c3ccccc3c2[nH]1` [NSC332670], for which the “replication of FMDV in cell culture via inhibiting 3Cpro” value in data set [8] was “inhibited the replication of FMDV in cell culture”.

With `COc1ccc(-c2cc(=O)c3c(O)cc(O)c(-c4cc(-c5cc(=O)c6c(O)cc(O)cc6o5)ccc4OC)c3o2)cc1` [isoginkgetin], the “replication of FMDV in cell culture via inhibiting 3Cpro” value in data set [8] is recorded as “inhibited the replication of FMDV in cell culture”.

Take `O=c1cc(-c2ccc(O)c(O)c2)oc2cc(O)cc(O)c12` [luteolin]: in data set [8], the “replication of FMDV in cell culture via inhibiting 3Cpro” value is given as “inhibited the replication of FMDV in cell culture”.

As to `Cc1cc(CCCOc2c(C)cc(-c3noc(C(F)(F)F)n3)cc2C)on1` [pleconaril], the “in vitro activity against FMDV (EC50)” value in [9] is “low micromolar to millimolar range”.

For the molecule `O=c1c(O)c(-c2ccc(O)c(O)c2)oc2cc(O)cc(O)c12` [quercetin], the “replication of FMDV in cell culture via inhibiting 3Cpro” value in [8] was “inhibited the replication of FMDV in cell culture”.

Regarding `NC(=O)c1ncn([C@@H]2O[C@H](CO)[C@@H](O)[C@H]2O)n1` [ribavirin], the “in vitro activity against FMDV (EC50)” value in data set [9] is on record as “low micromolar to millimolar range”.

These data come from publication PMC10986521 (Microbiology Spectrum, 2024).
